Values quoted from earlier work, collected in patent publication US6045822A, “Liposome preparations of indolocarbazole derivatives description” (Kyowa Hakko Kogyo Co., Ltd., priority 1996, dated 2000).

Legend:
[1] = in words; Cancer Res., 51, 4888 (1991)
[2] = tested on: protein kinase C; settings: in words; J. Antibiotics., 40, 1782 (1987)

For CNC1CC2OC(C)(C1OC)n1c3ccccc3c3c4c(c5c6ccccc6n2c5c31)C(=O)NC4O (centres unmarked) [UCN-01], the anti-tumor activity [1] is given as “has anti-tumor activity” and the “protein kinase C inhibitory activity” value [2] is given as “has protein kinase C inhibitory activity”.
